From PubChem BioAssay (NCI)
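Protocol summary: plate cells (96-well), add compound at 5 concentrations, incubate 48 h, interpolate endpoints linearly. TGI is the concentration that stops growth completely.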

Assays:
Test in all cases: NCI-60 cell line screen, 48 h
A498 renal = system: A498 renal
CCRF-CEM leukemia = system: CCRF-CEM leukemia
COLO 205 colon = system: COLO 205 colon
HL-60(TB) leukemia = system: HL-60(TB) leukemia
MALME-3M melanoma = system: MALME-3M melanoma
MCF7 breast = system: MCF7 breast
MDA-MB-435 = system: MDA-MB-435
RPMI-8226 leukemia = system: RPMI-8226 leukemia
RXF 393 renal = system: RXF 393 renal
SF-268 CNS = system: SF-268 CNS
SF-295 CNS = system: SF-295 CNS
SK-OV-3 ovarian = system: SK-OV-3 ovarian
T-47D breast = system: T-47D breast

SMILES	TGI (A498 renal)	TGI (CCRF-CEM leukemia)	TGI (COLO 205 colon)	TGI (HL-60(TB) leukemia)	TGI (MALME-3M melanoma)	TGI (MCF7 breast)	TGI (MDA-MB-435)	TGI (RPMI-8226 leukemia)	TGI (RXF 393 renal)	TGI (SF-268 CNS)	TGI (SF-295 CNS)	TGI (SK-OV-3 ovarian)	TGI (T-47D breast)
CN(C)P(=O)(Oc1ccc(CC(NC(=O)OCc2ccccc2)C(=O)OCc2ccccc2)cc1)N(C)C (stereo unspecified)	38.1 µM	7.56 µM	42.8 µM	32.9 µM	32.7 µM	31.6 µM	25.7 µM	15.2 µM	32.7 µM	27.8 µM	34.5 µM	33.2 µM	52.3 µM
CCCCCCOc1ccc(C(=O)NO)cc1	28.1 µM	5.27 µM	26 µM	14 µM	34.4 µM	> 100 µM	38.5 µM	29.8 µM	30.1 µM	28.7 µM	40.9 µM	60.3 µM	41.3 µM
CCOC(=O)CSc1nnc2cc(CN3CCCC3)c(-c3ccc(Cl)cc3)nn12	> 100 µM	> 100 µM	> 100 µM	> 100 µM	> 100 µM	> 100 µM	> 100 µM	> 100 µM	> 100 µM	> 100 µM	> 100 µM	> 100 µM	> 100 µM
O=C(O)CCc1ccc2c(c1)C(=O)CC2	> 100 µM	> 100 µM	> 100 µM	> 100 µM	> 100 µM	> 100 µM	> 100 µM	> 100 µM	> 100 µM	> 100 µM	> 100 µM	> 100 µM	> 100 µM
COc1ccc2cc(C(=O)O)ccc2c1OC	> 100 µM	> 100 µM	> 100 µM	> 100 µM	> 100 µM	> 100 µM	> 100 µM			> 100 µM	> 100 µM	> 100 µM	> 100 µM
CC(SC(=S)N1CCOCC1)C(=O)Nc1nnc(-c2ccccc2)o1 (stereo unspecified)	> 100 µM	18.3 µM	> 100 µM	20.5 µM	> 100 µM	> 100 µM	> 100 µM	> 100 µM	> 100 µM		> 100 µM	> 100 µM	> 100 µM
CC(=O)Oc1ccccc1/C=C/C(=O)/C=C/c1ccccc1OC(C)=O	4.01 µM	12.6 µM	4.06 µM		6.11 µM	4.99 µM	5.37 µM	1.84 µM	1.65 µM	8.17 µM	6.11 µM	13.6 µM	34.9 µM
COc1cc(S(=O)(=O)Nc2ccc(-c3csc(N)n3)cc2)ccc1Cl	59.2 µM	53.5 µM	33.6 µM	43.6 µM	31.4 µM	29.9 µM	46.9 µM	65.1 µM	33.8 µM	76.6 µM			23 µM
CCOC(=O)[C@@]12C[C@](/C=C/OC)(O[Si](C)(C)C)[C@@]13c1cc(OC)c(OC)cc1CCN3C(=O)C2O (stereo partly specified)	> 100 µM	> 100 µM	> 100 µM		> 100 µM	> 100 µM	> 100 µM	> 100 µM	> 100 µM	> 100 µM	> 100 µM	> 100 µM	> 100 µM
C=CCSC1=N/C(=C\c2cccs2)C(=O)N1CC=C	95.3 µM		> 100 µM		> 100 µM	> 100 µM	> 100 µM	91.3 µM	64.2 µM	> 100 µM	> 100 µM	> 100 µM	69.3 µM
Clc1cc(Cl)cc(C2ON=C(c3ccccc3)N2C23CC4CC(CC(C4)C2)C3)c1 (stereo unspecified)	> 10 µM	> 10 µM	> 10 µM		> 10 µM	> 10 µM	> 10 µM	> 10 µM	> 10 µM	> 10 µM	> 10 µM	> 10 µM	> 10 µM
CCOC(=O)c1cnc2n(c1=N)[C@H]1CCCC[C@@H]1N2	> 100 µM		> 100 µM	> 100 µM	> 100 µM	> 100 µM	> 100 µM	> 100 µM	> 100 µM	> 100 µM	> 100 µM	> 100 µM	> 100 µM
CC1=CC[C@@]2(CO)[C@@H]([C@@H]1C)[C@H]1CC[C@@H]3[C@@]4(C)CC[C@H](O)C(C)(C)[C@@H]4CC[C@@]3(C)[C@]1(C)C[C@@H]2O	58.8 µM	> 100 µM	50.2 µM	> 100 µM	72.8 µM	> 100 µM	> 100 µM		25.7 µM	> 100 µM	58.4 µM	39.4 µM	75.1 µM
c1ccc([P+](Cc2ccccc2C[P+](c2ccccc2)(c2ccccc2)c2ccccc2)(c2ccccc2)c2ccccc2)cc1	> 100 µM		> 100 µM	> 100 µM	> 100 µM	> 100 µM	> 100 µM	> 100 µM	> 100 µM	> 100 µM	> 100 µM	> 100 µM	> 100 µM
CC(NC(=O)C(N)CC(=O)O)NC(=O)C1CCC1 (stereo unspecified)	> 100 µM	> 100 µM	> 100 µM		> 100 µM	> 100 µM	> 100 µM	> 100 µM	> 100 µM	> 100 µM		> 100 µM	> 100 µM
CCOc1ccc(N/C(Cl)=C(Cl)\C(=C(\Nc2ccc(OCC)cc2)n2nnc3ccccc32)[N+](=O)[O-])cc1	39 µM	33.9 µM	25.4 µM		5.49 µM	24.6 µM	23.7 µM	> 30.5 µM	5.39 µM	32.1 µM	57.7 µM	> 100 µM	29.1 µM
Cc1nnc2sc(NN)nn12	> 100 µM	> 100 µM	> 100 µM		> 100 µM	> 100 µM	> 100 µM	> 100 µM	> 100 µM	> 100 µM	> 100 µM	> 100 µM	> 100 µM
CC1Oc2c(c(=O)oc3ccccc23)[C@@]1(C)CC1C[C@H](C)C(=O)O1 (stereo partly specified)	> 100 µM	32.9 µM	> 100 µM	> 100 µM	53.4 µM	> 100 µM	47.8 µM	77.4 µM		42.8 µM	> 100 µM	> 100 µM	> 100 µM
